{"source": "patent US11215608B2", "about": "“Methods of determining cellular chemosensitivity” (Dana-Farber Cancer Institute, Inc., priority 2006, dated 2022)", "key": {"[1]": {"tested_on": "CLL mitochondria", "test": "Cytochrome c release from CLL mitochondria", "assay_type": "biochemical, human", "conditions": "peptides or compounds 100 μM", "description": "Alternatively, mitochondria were purified from freshly isolated CLL cells and cell lines by mechanical disruption followed by differential centrifugation, as previously described (Letai et al., 2002). Mitochondrial suspensions were made at 0.5 mg protein/ml, except for the case of ABT-737 and negative control enantiomer treatments, where 0.1 mg/ml was used. Release of cytochrome c was determined by a comparison of cytochrome c in the pellet and supernatant quantitated by ELISA (R&D systems).\nCLL mitochondria were incubated with BH3 peptides as well as ABT-737 and negative control enantiomer (FIG. 14). […] This pattern is diagnostic of mitochondrial BCL-2 dependence. […] Since the BH3 peptides in the sensitizer panel lack the ability to directly activate BAX and BAK, these experiments also implicated the presence of an activator molecule constitutively sequestered by BCL-2 in CLL."}, "[2]": {"tested_on": "mouse liver mitochondria", "test": "Cytochrome c release from mouse liver mitochondria", "assay_type": "biochemical", "conditions": "no tBID, also at 10-fold higher concentrations", "description": "(§1) Mitochondria were purified from liver and FL5.12cells as previously described (Letai et al., 2002). Mitochondria were purified from leukemia cells and 2B4 cells as previously described for FL5.12 cells. Mitochondria were incubated with treatments for 45 (mouse liver mitochondria) or 35 minutes (FL5.12, 2B4, and leukemic mitochondria). Release of cytochrome c was determined by a comparison of cytochrome c in the pellet and supernatant following treatment, quantitated by ELISA (R&D systems). When results of multiple experiments were averaged, results from solvent-only (DMSO) treatments values were subtracted from each, so that 0 release reflects that observed in solvent-only treatments.\nTo test if selective binding corresponded to ability of individual BH3 domains to selectively antagonize antiapoptotic function, a purified mitochondrial system was constructed in which the critical apoptosis decision making molecular machinery was reconstituted. […] The multidomain proapoptotic function was provided by the BAK which resides in mouse liver Mitochondria; mouse liver mitochondria contain no detectable BAX protein (Letai et al., 2002). The dominant antiapoptotic function was provided by one of the five different recombinant antiapoptotic proteins used in the binding assays. BH3 peptides provided the sensitizer function.\nFurthermore, when the panel of sensitizer BH3 peptides was tested in the presence of the antiapoptotic protein BCL-XL, there was still no cytochrome c release, formally ruling out the possibility that the BH3 peptides were somehow directly converting antiapoptotic proteins to a proapoptotic function (FIG. 2). To induce MOMP and cytochrome c release, there appears to be an absolute requirement for an activator function, here provided by the tBID protein."}, "[3]": {"tested_on": "SU-DHL6", "test": "BH3 profiling, cytochrome c release from lymphoma mitochondria", "assay_type": "biochemical", "conditions": "SU-DHL 6", "text": "(§2) BH3 profiling allows for the prediction of response of cancer cells to anti-cancer therapeutics. For the purposes of this application, therapeutics can be divided into those that target anti-apoptotic BCL-2 proteins, and conventional agents. As a model test system, four lymphoma cell lines SU-DHL4, SU-DHL6, SU-DHL8, and SU-DHL 10 were employed. To perform BH3 profiling, the ability of a panel of sensitizer peptides to induce mitochondrial outer membrane permeabilization (MOMP) in mitochondria isolated from the lymphoma cells were tested. […] MOMP was measured by quantifying cytochrome c release by ELISA.\nSU-DHL4 and SU-DHL6 a “primed” phenotype, based on the sensitivity to sensitizer BH3 peptides. […] SU-DHL-10 responded poorly to both sensitizer and activator peptides, indicating the loss of the effector arm."}, "[4]": {"molecular_target": "T1, GST-BCL-2 (Homo sapiens, UniProt P10415)", "T1 construct": "In each case, the C-terminus transmembrane domain was truncated to maintain solubility in aqueous solution; made in house; host or cells: bacteria", "T1 sequence (P10415 1-218 limits assumed)": "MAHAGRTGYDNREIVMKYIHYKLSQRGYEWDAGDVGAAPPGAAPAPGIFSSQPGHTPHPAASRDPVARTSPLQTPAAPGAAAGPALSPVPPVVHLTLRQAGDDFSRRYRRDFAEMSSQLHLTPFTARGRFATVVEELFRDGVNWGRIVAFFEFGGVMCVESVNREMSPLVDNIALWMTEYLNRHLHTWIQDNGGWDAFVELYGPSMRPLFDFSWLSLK", "test": "BIM BH3 displacement by fluorescence polarization", "assay_type": "binding", "conditions": "25 nM fluorescein-linked BIM BH3, 0.5 uM GST-BCL-2", "description": "(§3) Binding assays were performed using fluorescence polarization as previously described (Letai et al., 2002). A minimum of three independent experiments were used to determine each dissociation constant.\n(§4) As one test of this hypothesis, the ability of sensitizer peptides to displace tBID from antiapoptotic protein Bcl-w was examined utilizing a GST-pulldown assay. Proteins bound to glutathioneagarose beads were eluted with glutathione and analyzed by Western blot. In FIG. 3A, tBID is displaced from BC1-w by sensitizer BH3 peptides in a pattern that replicates the pattern in FIG. 1D. […] These experiments support the ability of sensitizer BH3 peptides to displace activators from the antiapoptotic binding cleft."}, "[5]": {"tested_on": "leukemic mitochondria", "test": "Cytochrome c release from BCL-2 dependent leukemia mitochondria", "assay_type": "biochemical, mouse", "description": "as §1\nLeukemia prone mice were generated as previously described (Letai, 2004). Mouse experimental protocols conform to the relevant regulatory standards and were approved by the Dana-Farber Cancer Institute Animal Care and Use Committee.\nPrevious results have described a mouse acute lymphocytic leukemia model in which c-myc is constitutively expressed and human BCL-2 is repressibly expressed. In this model, when BCL-2 transgene expression is eliminated by administration of doxycycline, the leukemic cells undergo apoptosis, resulting in rapid resolution of the leukemia (Letai, 2004). This provides an ideal in vivo model of a BCL-2 dependent cancer. It was hypothesized that dependence on BCL-2 was due to a similar mechanism to that of the IL-3 deprived FL5.12-BCL-2 cells—that is, a death signal was being initiated and carried by an activator BH3 molecule, but BCL-2 was binding it and preventing its interaction with multidomain proapoptotic proteins.\nMitochondria were isolated from leukemia cells and exposed to sensitizer BH3 peptides. Subsequently, cytochrome c release was measured. As an internal control, mitochondria were isolated from liver from the leukemic mice in parallel (FIG. 8A)."}, "[6]": {"tested_on": "BAX", "test": "BAX oligomerization / activation in mitochondria of IL-3 starved FL5.12-BCL-2 cells", "assay_type": "biochemical, murine", "conditions": "peptides 30 uM, ABT-737 10 uM, 35 minutes", "description": "Mitochondria were isolated from wt FL5.12 cells and FL5.12-BCL-2 cells in the presence of IL-3, and from FL5.12-BCL-2 cells following 24 hours of IL-3 deprivation. […] Mitochondrial pellets were subjected to chemical crosslinking as previously described (Letai et al., 2002).\nThis model predicts that BCL-2 acts upstream of BAX activation by intercepting activator BH3 molecules. To test this prediction, in FIG. 6E, immunoprecipitation was performed with an antibody that recognizes only the activated form of BAX which exposes an N-terminus epitope (Desagher ct al., 1999; Hsu and You le, 1997). wt or BCL-2 expressing FL5.12 cells were exposed to IL-3 withdrawal as indicated."}, "[7]": {"tested_on": "SU-DHL8", "test": "BH3 profiling, cytochrome c release from lymphoma mitochondria", "assay_type": "biochemical", "conditions": "SU-DHL-8", "text": "as §2"}, "[8]": {"tested_on": "SU-DHL4, SU-DHL6, SU-DHL8, SU-DHL 10", "test": "Lymphoma cell line sensitivity to agents", "assay_type": "cell-based", "conditions": "four lymphoma cell lines compared", "description": "Only cells that are dependent on BCL-2 for survival are predicted to respond to BCL-2 antagonists like ABT-737. […] To test this, cells were treated with vincristine."}, "[9]": {"tested_on": "FLAG-MCL-1-transfected 2B4 cells", "test": "BH3 peptides electroporated into dexamethasone-treated FLAG-MCL-1 2B4 cells", "assay_type": "cell-based, murine", "conditions": "peptide transfected by electroporation", "text": "Percent killing was ascertained by Annexin-V staining. […] N=3 and the error bars represent the standard deviation."}, "[10]": {"molecular_target": "T2, GST-MCL-1 (Homo sapiens, UniProt Q07820)", "T2 construct": "In each case, the C-terminus transmembrane domain was truncated to maintain solubility in aqueous solution; made in house; host or cells: bacteria (construct a gift of Tilman Oltersdorf)", "T2 sequence (Q07820 1-327)": "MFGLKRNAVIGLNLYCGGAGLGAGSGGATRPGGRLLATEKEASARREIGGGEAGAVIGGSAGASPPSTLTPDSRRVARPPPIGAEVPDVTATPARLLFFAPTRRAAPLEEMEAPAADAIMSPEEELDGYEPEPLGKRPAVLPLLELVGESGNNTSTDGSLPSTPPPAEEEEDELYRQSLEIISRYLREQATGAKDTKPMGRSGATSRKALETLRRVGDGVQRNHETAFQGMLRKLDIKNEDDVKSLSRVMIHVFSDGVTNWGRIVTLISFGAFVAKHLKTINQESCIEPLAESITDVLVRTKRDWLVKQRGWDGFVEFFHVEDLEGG", "test": "BIM BH3 displacement by fluorescence polarization", "assay_type": "binding", "conditions": "25 nM fluorescein-linked BIM BH3, 0.1 uM GST-MCL-1", "description": "as §3, §4"}}, "data": [{"molecule": "CSCC[C@H](NC(=O)[C@H](CCCNC(=N)N)NC(=O)[C@H](CCCNC(=N)N)NC(=O)[C@H](CC(C)C)NC(=O)[C@H](CCC(=O)O)NC(=O)[C@H](CCCNC(=N)N)NC(=O)CNC(=O)[C@H](Cc1ccc(O)cc1)NC(=O)[C@H](CCCNC(=N)N)NC(=O)[C@H](CCC(N)=O)NC(=O)[C@H](C)NC(=O)[C@H](C)NC(=O)[C@H](Cc1c[nH]c2ccccc12)NC(=O)[C@H](CC(C)C)NC(=O)CCCCCNC(=S)Nc1ccc2c(c1)C(=O)OC21c2ccc(O)cc2Oc2cc(O)ccc21)C(=O)N[C@@H](CO)C(=O)N[C@@H](CC(=O)O)C(=O)N[C@@H](CCC(=O)O)C(=O)N[C@@H](Cc1ccccc1)C(=O)N[C@@H](CCC(=O)O)C(=O)NCC(=O)N[C@@H](CO)C(=O)N[C@@H](Cc1ccccc1)C(=O)N[C@@H](CCCCN)C(=O)NCC(=O)N[C@@H](CC(C)C)C(=O)O", "note": "[BAD]", "values": [{"measurement": "cytochrome c release", "setting": "[1]", "result": "induce cytochrome c release"}, {"measurement": "cytochrome c release by peptide alone", "setting": "[2]", "result": "none of the sensitizer BH3 peptides by themselves can induce cytochrome c release significantly above background"}, {"measurement": "mitochondrial sensitivity to BH3 peptide", "setting": "[3]", "result": "weaker, but definite, response"}, {"measurement": "displacement of BIM BH3 from BCL-2", "setting": "[4]", "result": "efficiently displaces BIM BH3 from BCL-2"}, {"measurement": "cytochrome c release", "setting": "[5]", "result": "capable of inducing near total cytochrome c release"}, {"measurement": "BAX oligomerization", "setting": "[6]", "result": "results in BAX oligomerization"}]}, {"molecule": "CC[C@H](C)[C@H](NC(=O)[C@H](CCC(=O)O)NC(=O)[C@H](CCCNC(=N)N)NC(=O)[C@H](C)NC(=O)[C@H](Cc1c[nH]c2ccccc12)NC(=O)[C@H](CCC(N)=O)NC(=O)[C@H](CCC(=O)O)NC(=O)CCCCCNC(=S)Nc1ccc2c(c1)C(=O)OC21c2ccc(O)cc2Oc2cc(O)ccc21)C(=O)NCC(=O)N[C@@H](C)C(=O)N[C@@H](CCC(N)=O)C(=O)N[C@@H](CC(C)C)C(=O)N[C@@H](CCCNC(=N)N)C(=O)N[C@@H](CCCNC(=N)N)C(=O)N[C@@H](CCSC)C(=O)N[C@@H](C)C(=O)N[C@@H](CC(=O)O)C(=O)N[C@@H](CC(=O)O)C(=O)N[C@@H](CC(C)C)C(=O)N[C@@H](CC(N)=O)C(=O)N[C@@H](C)C(=O)O", "note": "[PUMA]", "values": [{"measurement": "mitochondrial sensitivity to BH3 peptide", "setting": "[7]", "result": "limited response"}, {"measurement": "cytochrome c release", "setting": "[1]", "result": "induce cytochrome c release"}, {"measurement": "cytochrome c release by peptide alone", "setting": "[2]", "result": "none of the sensitizer BH3 peptides by themselves can induce cytochrome c release significantly above background"}, {"measurement": "mitochondrial sensitivity to BH3 peptide", "setting": "[3]", "result": "strong"}, {"measurement": "cytochrome c release", "setting": "[5]", "result": "capable of inducing near total cytochrome c release"}]}, {"molecule": "CC[C@]1(O)C[C@H]2CN(CCc3c([nH]c4ccccc34)[C@@](C(=O)OC)(c3cc4c(cc3OC)N(C=O)[C@H]3[C@@](O)(C(=O)OC)[C@H](OC(C)=O)[C@]5(CC)C=CCN6CC[C@]43[C@@H]65)C2)C1", "note": "[vincristine]", "values": [{"measurement": "cell sensitivity to the agent", "setting": "[8]", "result": "SU-DHL4 and SU-DHL6 were the most sensitive cell lines"}]}, {"molecule": "BH3 domain peptide of murine NOXA, AELPPEFAAQLRKIGDKVYC (SEQ ID NO: 6) [NOXA A]", "values": [{"measurement": "cytochrome c release", "setting": "[1]", "result": "do not"}, {"measurement": "cytochrome c release by peptide alone", "setting": "[2]", "result": "none of the sensitizer BH3 peptides by themselves can induce cytochrome c release significantly above background"}, {"measurement": "mitochondrial sensitivity to BH3 peptide", "setting": "[3]", "result": "weaker, but definite, response"}, {"measurement": "percent killing by Annexin-V staining", "setting": "[9]", "result": "significantly greater than that with BAD"}, {"measurement": "displacement of BIM BH3 from MCL-1", "setting": "[10]", "result": "efficiently displaces BIM from MCL-1"}]}]}
